How the values were obtained:
heart [1] = assay: Effect on heart contractility (maximum dP/dt) of the anesthetized dog; type: in vivo
Description: (§1) Effects of Compound I and Ouabain On the Heart Contractility and Rhythmicity of the Anesthetized Dog
(§2) The object of the test was to compare compound I and oubain administered alone and in combination with each other to study the inotropic effect (maximum dP/dt in the left ventricle) and a possibly arrhythmic effect. The latter included an investigation of the ability of the compounds to cause repetitive ventricular response (RVR) when the heart was electrically stimulated via an electrode on the ventricle at the electrically vulnerable phase at the end of the T-wave. Klein et al. (M. Klein, N. S. Nejad, B. Lown, F. Hagemeijer and I. Blair, Circulation Research, 29, 635 (1971)) have shown that digitalis caused RVR at a dose which was about 70% of the dose giving spontaneous ventricular arrhythmias.
(§3) The dog was anesthetized with Mebumal® 30 mg/kg bodyweight i.v. Artificial respiration was applied. The sinus-node was electrocoagulated and the heart frequency was kept constant at 180 beats/minute in each test by electrical pacing of the auricle. Mean arterial blood pressure was registered from the carotis artery. ECG was registered during the test. Further, the pressure in the left ventricle was registered via a catheter inserted through the apex and connected to a pressure transducer. The intraventricular pressure curve was derivated to obtain maximum dP/dt which is a measure of the contractile force of the heart.
(§4) The test was started with a series of control registrations, whereupon the compounds were administered 3 times by infusion during five minutes and with an interval of 50 minutes between each infusion.
(§5) In the experiment with compound I only, the compound was administered in two doses of 10 μg/kg bodyweight and then one dose of 20 μg/kg bodyweight. Ouabain was given in 3 consecutive doses of 20 μg/kg bodyweight. In the combination test ouabain was first given in a dose of 20 μg/kg bodyweight followed by two doses of compound I of 10 and 20 μg/kg bodyweight, respectively.

heart [2] = assay: Repetitive ventricular response (RVR) / spontaneous arrhythmia in the anesthetized dog; type: in vivo; conditions: 40 μg/kg bodyweight
Description: as §1, §2, §3, §4, §5

heart [3] = assay: Effect on heart chronotropy and inotropy of a conscious dog; conditions: for Enddiastolic volume / Stroke volume / Mean arterial blood pressure / Peak aortic flow / Mean ejection rate / Max. dF/dt: change i.v. at heart frequency +10 beats/min, interpolated, paced; for Enddiastolic volume: calculated from left ventricle diameter; for Stroke volume: methyl scopolamine pretreated; for Mean ejection rate: stroke volume / ejection time; for side effects: I and II 10 and 20 μg/kg; for Max. dF/dt: maximum flow acceleration in aorta
Description: During anesthesia a catheter was introduced in the aorta, an electromagnetic flow probe was placed around the ascending aorta, and induction coils were placed diametrically on the inside of the left ventricle. The experiments were started about 2 weeks after the incision, when the dog had recovered completely.
When the dog was resting, the arterial blood pressure, the flow in the aorta, the maximum flow acceleration in the aorta (maximum dF/dt), heart frequency, the diameter of the left ventricle, and ECG were registered. The effects of compounds I and II were registered at 10, 20, and 30 minutes after administration. […] The compounds were given intravenously in the following doses. […] In order to eliminate vagal influence on the heart the dog was pretreated with methyl scopolamine 0.012 mg/kg bodyweight intramuscularily 20 minutes before the administration of the compounds. From the data giving the diameter of the left ventricle, the end diastolic volume was calculated according to E. W. Hawthorne. Mean ejection rate (ml/sec.) was calculated by dividing the stroke volume with the ejection time. […] The values given are the percentage changes after administration when the heart frequency has increased 10 beats per minute, values interpolated. […] In order to compare the inotropic effects of ouabain with those of the other compounds, the heart was stimulated in these experiments by electric pacing to a frequency which was 10 beats/minute above that registered before administration.
In order to investigate the absorption and duration of the effect, compounds I and II were given orally in an amount of 100 μg/kg bodyweight.

[4] = biological target: T1, beta-receptors of the blood vessels (Felis catus, UniProt Q9TST5); assay: Vasodilatating effect (hind limb perfusion pressure) on anesthetized cat pretreated with reserpine; type: in vivo; conditions: iv; reserpinized anesthetized cat, i.v.; estimated dose giving 50% of maximal effect; read-out: ED50 Vasodilation
T1 construct: from tissue; host or cells: hind-limb vascular bed of the anaesthetized cat in vivo (constant-flow perfusion, reserpine-pretreated)
T1 sequence (Q9TST5 whole entry, the tested form may be a part): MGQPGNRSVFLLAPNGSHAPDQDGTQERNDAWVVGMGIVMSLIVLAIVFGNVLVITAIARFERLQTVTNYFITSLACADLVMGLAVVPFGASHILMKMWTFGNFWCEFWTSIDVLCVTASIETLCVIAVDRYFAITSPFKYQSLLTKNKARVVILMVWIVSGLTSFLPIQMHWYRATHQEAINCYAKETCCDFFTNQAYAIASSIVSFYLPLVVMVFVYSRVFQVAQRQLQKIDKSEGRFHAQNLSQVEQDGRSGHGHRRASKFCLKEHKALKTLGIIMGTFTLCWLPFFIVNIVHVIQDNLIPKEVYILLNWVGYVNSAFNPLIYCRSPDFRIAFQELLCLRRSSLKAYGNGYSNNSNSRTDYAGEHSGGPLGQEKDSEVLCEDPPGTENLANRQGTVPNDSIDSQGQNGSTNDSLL
Experimental: (§6) Chronotropic (heart frequency) and vasodilatating effects:
(§7) When the cats had been anaesthetized with Mebumal® 30 mg/kg bodyweight i.p., an artificial air respiration was started. The two vagus nerves were cut and the blood passing through a femoral artery was fed via a catheter and a pump back to the distal part of the vessel. Parallelly, a pressure transducer was connected by which the perfusion pressure was registered. At a perfusion with a constant flow, the perfusion pressure is directly proportional to the peripheral resistance of the vascular bed of the hind limb. Blood circulation in the foot was interrupted with a ligature. Heart frequency was registered with a cardiotachometer triggered by the ECG. The substances were administered intravenously in increasing doses and the dose-response curves of the heart frequency and the vasodilatation were constructed.
(§8) Further, the dose ratios (ED50 for vasodilatation/ED50 for heart frequency) are calculated. A dose ratio >1 indicates a heart selective effect.

[5] = tested on: beta-receptors of the heart; assay: Beta-adrenergic (chronotropic, heart frequency) effects on anesthetized cat pretreated with reserpine; type: in vivo
Experimental: as §6, §7, §8

[6] = biological target: T2, beta-receptors of the heart (Felis catus, UniProt Q9TST6); assay: as above; type: in vivo; conditions: for potency relative to isoprenaline, chronotropic effect: isoprenaline = 1, cat i.v.; for ED50: iv, reserpinized anesthetized cat, i.v., estimated dose giving 50% of maximal effect, read-out: ED50 Heart Frequency
T2 construct: Heart frequency was registered with a cardiotachometer triggered by the ECG; from tissue; host or cells: heart of the anaesthetized cat in vivo (reserpine-pretreated, vagotomized)
T2 sequence (Q9TST6 whole entry): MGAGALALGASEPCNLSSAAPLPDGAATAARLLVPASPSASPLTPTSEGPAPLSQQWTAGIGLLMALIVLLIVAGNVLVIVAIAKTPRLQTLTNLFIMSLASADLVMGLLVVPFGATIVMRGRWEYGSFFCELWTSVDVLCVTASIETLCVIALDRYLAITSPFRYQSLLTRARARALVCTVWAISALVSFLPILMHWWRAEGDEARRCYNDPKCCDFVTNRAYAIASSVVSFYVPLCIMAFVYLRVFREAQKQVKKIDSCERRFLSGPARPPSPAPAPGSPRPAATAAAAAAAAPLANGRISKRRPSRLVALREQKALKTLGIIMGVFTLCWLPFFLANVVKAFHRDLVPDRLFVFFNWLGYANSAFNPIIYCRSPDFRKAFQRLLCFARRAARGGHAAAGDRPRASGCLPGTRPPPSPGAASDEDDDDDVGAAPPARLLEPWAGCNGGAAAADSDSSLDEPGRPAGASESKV
Experimental: as §6, §7, §8

heart [7] = assay: Ventricular arrhythmia in dogs after two-stage ligation of the left anterior coronary artery (third day post infarction); type: in vivo, dog; conditions: 1-norepinephrine 20 μg/kg/min infusion, 120 minutes
Experimental: Harris, A. S. Delayed Development of Ventricular Ectopic Rhythms following Coronary Occlusion, Cir. l, p 1318, (1950) described a method of two-stage ligation of the left anterior coronary artery in the dog. This method produces a multifocal ventricular arrhythmia that generally remains persistent on the first post ligation day (day 1-24 hours post infarct). The arrhythmia slowly disappears, and by the third post-ligation day the animal has essentially a normal sinus rhythm.
Maling, H. M. and Moran, N. C., Ventricular Arrhythmias Induced by Sympathominetic Amines in Unanesthetized Dogs Following Coronary Artery Occlussion, Cir.
METHODS, MATERIALS AND EXPERIMENTAL DESIGN
Seventeen adult female beagle dogs were used. Their ages ranged from one to three years. These animals were divided into two groups.
The first group consisted of 12 dogs and served as a control group. All animals were subjected to a two-stage ligation of the left anterior coronary artery. On the first post operative day these twelve animals were given various experimental antiarrhythmic agents as part of a routine testing procedure. It should be noted that, due to the nature of these agents, there would be no test drug or only trace amounts of test drug in the blood on day 3, and these amounts would cause little or no change on the outcome of a third day test. It should also be noted that all twelve of these animals has at least 85% ventricular ectopic beats on the morning after surgery in order to be accepted for testing.
On the third day post infarction the dogs were suspended in a standing position in a canvas sling. No anesthesia or sedation was used. ECGs were recorded as well as blood pressure. After a control period, an infusion of 20 μg/kg min. of 1-norepinephrine was begun using a Harvard infusion/withdrawal pump. This infusion lasted 120 minutes.
These five animals were all subjected to a two stage ligation of the anterior descending coronary artery. On day 1 and day 2 each dog was suspended in a canvas sling in the standing position and ECG, blood pressure, and other physiologic measurements were taken. […]

[8] = 20 minutes after administration, ouabain versus compound I
[9] = anesthetized dog, i.v. infusion
[10] = conscious dog, ouabain 30 μg/kg i.v.
[11] = dose ratio >1 indicates a heart selective effect

Row | Structure (SMILES) | ED50 [4] [mg/kg] | potency relative to isoprenaline, chronotropic effect [6] | ED50 [6] [mg/kg] | Enddiastolic volume (heart [3]; ouabain 30 μg/kg i.v.) [%] | Stroke volume (heart [3]; ouabain 30 μg/kg i.v.) [%] | Mean arterial blood pressure (heart [3]; ouabain 30 μg/kg i.v.) [mm Hg] | Peak aortic flow (heart [3]; ouabain 30 μg/kg i.v.) [%] | Mean ejection rate (heart [3]; ouabain 30 μg/kg i.v.) [%] | side effects (heart [3]; [10]) | Max. dF/dt (heart [3]; ouabain 30 μg/kg i.v.) [%] | Selectivity: ED50 Vasodilatation / ED50 Heart Frequency [5, 11] | also measured
1 | C[C@@H]1O[C@@H](O[C@H]2C[C@@H](O)[C@]3(CO)[C@H]4[C@H](O)C[C@]5(C)[C@@H](C6=CC(=O)OC6)CC[C@]5(O)[C@@H]4CC[C@]3(O)C2)[C@H](O)[C@H](O)[C@H]1O [Ouabain, reference compound] |  |  |  | -2 | 5 | 10 | 12 | 10 | vomiting | 30 |  | increase of aortic blood pressure (heart [1]; 20 minutes after administration): about 10 mm Hg; doses giving approximately the same level of maximum dP/dt (lower pair) (heart [1]; [8]): ~20 μg/kg bodyweight; doses giving corresponding effect on maximum dP/dt (higher pair) (heart [1]; [8]): 40 μg/kg bodyweight; effect on maximum dP/dt (in words) (heart [1]; [9]): increased maximum dP/dt; onset of effect on maximum dP/dt (heart [1]; [9]): within a minute; reduction of effect on maximum dP/dt after 50 minutes (heart [1]; [9]): only partly reduced after 50 minutes; time to maximal effect on maximum dP/dt (heart [1]; [9]): about 20 minutes; experiments with RVR (heart [2]): more than 50%; heart frequency (in words) (heart [3]; [10]): expected decrease of the heart frequency; time of maximum response after i.v. administration (heart [3]; ouabain 30 μg/kg i.v.): about 50 minutes
2 | CC(C)NCC(O)c1ccc(O)c(O)c1 (centres unmarked) [Isoprenaline, reference compound] |  |  |  | -2 |  | -10 | 19 |  |  |  |  | mean blood pressure (in words) (heart [3]; conscious dog, infusion): decreased the mean blood pressure; contractility / inotropic effect in conscious dog (in words) (heart [3]; i.v.): increased the contractility less than compounds I and II
3 | CC(C)NCC(O)COc1ccc(OC(=O)C(C)C)cc1 (centres unmarked) [II, 1-isopropylamino-3-(p-isobutyryloxyphenoxy)-propanol-2] | > 1 | about 1/100 | 0.006 | -8 | 5 | 0 | 19 | 11 | No side effect was observed | 34 | > 100 | time of maximum effect, oral (heart [3]; 100 μg/kg bodyweight orally): 30 min; oral effect (in words) (heart [3]; oral, 100 μg/kg bodyweight): comparable with those obtained after intravenous administration of 20 μg/kg bodyweight; positive inotropic effect compared with ouabain (in words) (heart [3]; versus relatively high dose of ouabain): comparable to the effect of the relatively high dose of ouabain
4 | NC[C@H](O)c1ccc(O)c(O)c1 [norepinephrine, reference compound] |  |  |  |  |  |  |  |  |  |  |  | duration of substantially high incidence of ectopic activity (heart [7]): at least 90 minutes

Now from value to compound, other results behind:

Row | ED50 [4] [mg/kg] | potency relative to isoprenaline, chronotropic effect [6] | ED50 [6] [mg/kg] | Structure (SMILES) | Enddiastolic volume (heart [3]; ouabain 30 μg/kg i.v.) [%] | Stroke volume (heart [3]; ouabain 30 μg/kg i.v.) [%] | Mean arterial blood pressure (heart [3]; ouabain 30 μg/kg i.v.) [mm Hg] | Peak aortic flow (heart [3]; ouabain 30 μg/kg i.v.) [%] | Mean ejection rate (heart [3]; ouabain 30 μg/kg i.v.) [%] | side effects (heart [3]; [10]) | Max. dF/dt (heart [3]; ouabain 30 μg/kg i.v.) [%] | Selectivity: ED50 Vasodilatation / ED50 Heart Frequency [5, 11] | also measured
5 | > 1 | about 1/100 | 0.01 | CC(C)NCC(O)COc1ccc(OC(=O)c2ccccc2)cc1 (centres unmarked) [III, 1-isopropylamino-3-(p-benzoyloxyphenoxy)-propanol-2] |  |  |  |  |  |  |  | > 100 | 
6 | > 1 |  | 0.06 | CC(C)NCC(O)COc1ccc(OC(=O)C(C)(C)C)cc1 (centres unmarked) [IV, 1-isopropylamino-3-(p-pivaloyloxyphenoxy)-propanol-2] |  |  |  |  |  |  |  |  | Selectivity: ED50 Vasodilatation / ED50 Heart Frequency ([5]; in vivo): > 15
